Results: US12643879B2, “Functionalized heterocyclic compounds as modulators of stimulator of interferon genes (STING)” (RYVU THERAPEUTICS S.A., priority 2019, dated 2026)
Structures can show the parent of a compound that is named as a salt. Where two headings read alike, the source gives them in different places.

Assays:
human STING = human STING (Homo sapiens, UniProt Q86WV6); assay: Fluorescence Thermal Shift assay (binding to STING); conditions: STING 0.1 mg/mL, SyproOrange, 25 to 99° C.
Method: Compounds, constructs and conjugates of the present invention were tested for binding to human STING in Fluorescence Thermal Shift assay. STING was preincubated with the compounds for 20 minutes in 50 mM Hepes, 150 mM NaCl, pH 7.5 in 15 or 16 μl volume, following by adding 4 μl of SyproOrange dye dilution (ThermoFisher, cat no. S-6651). Final STING concentration was 0.1 mg/mL. Thermal unfolding was performed in Real-Time PCR QuantStudio 6 Flex System (Applied Biosystems), from 25 to 99° C., with continuous ramp mode and ramp rate 0.033° C./s. The data were analyzed using Protein Thermal Shift Software (ThermoFisher).

[1] = tested on: NF-κB pathway in THP-1 dual cells; assay: THP-1 Dual reporter assay, NF-κB pathway (SEAP); assay type: cell-based; conditions: Homo sapiens, THP1-Dual, read-out: THP1 Dual EC50 (μM) NFkB
In short: (§1)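 Compounds (STING agonists) stimulated THP-1 dual cells for 18 h; the cells carry an ISG54 promoter/ISRE-driven luciferase (IRF) and an IFN-β minimal promoter/NF-κB element-driven SEAP. Luciferase in conditioned medium was read by luminescence immediately; SEAP by absorbance at 630 or 655 nm after 1 or 2 h at 37° C.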

[2] = tested on: interferon regulatory factor (IRF) pathway in THP-1 dual cells; assay: THP-1 Dual reporter assay, IRF pathway (luciferase); assay type: cell-based; conditions: Homo sapiens, THP1-Dual, read-out: THP1 Dual EC50 (μM) IRF
In short: as §1

[3] = 18 h stimulation, absorbance at 630 or 655 nm

Sequence of human STING (Q86WV6 whole entry H232R): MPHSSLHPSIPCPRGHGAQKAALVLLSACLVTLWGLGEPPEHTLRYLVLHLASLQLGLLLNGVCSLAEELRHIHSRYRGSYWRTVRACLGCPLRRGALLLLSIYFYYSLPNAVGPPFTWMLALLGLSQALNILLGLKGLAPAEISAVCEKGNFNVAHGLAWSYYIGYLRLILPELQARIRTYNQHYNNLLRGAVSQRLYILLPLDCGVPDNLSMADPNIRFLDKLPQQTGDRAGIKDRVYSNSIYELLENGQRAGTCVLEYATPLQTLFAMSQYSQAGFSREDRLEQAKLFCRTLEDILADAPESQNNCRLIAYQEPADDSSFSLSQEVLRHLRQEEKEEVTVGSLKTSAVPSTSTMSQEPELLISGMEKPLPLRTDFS

Structure (SMILES) | EC50 [1, 3] [µM] | EC50 ([2]; 18 h stimulation, luminescence) [µM] | hSTING FTS binding assay (ΔT C. °) (human STING) | EC50 ([1]; 18 h) [µM] | EC50 ([2]; 18 h) [µM]
Cc1ccc(N2CCC[C@H](N(Cc3ccnc(C)c3)Cc3cn(C4CC4)c4cc(N5CC[C@@H](N)C(F)(F)C5)c(F)cc4c3=O)C2)cn1.Cl (single isomer, unassigned) [Example 56] |  |  | +++ (+++=ΔTm ≥20° C.) |  | 
Cc1ccc(N2CCC[C@H](N(Cc3ccnc(C)c3)Cc3cn(C4CC4)c4cc(OCCN(C)C(=O)CCOCCOCCOCCOCCOCCOCCOCCC(=O)O)c(F)cc4c3=O)C2)cn1 [Example 11E, 1-[(2-{[1-cyclopropyl-6-fluoro-3-({[(3S)-1-(6-methylpyridin-3-yl)piperidin-3-yl][(2-methylpyridin-4-yl)methyl]amino}methyl)-4-oxo-1,4-dihydroquinolin-7-yl]oxy}ethyl)(methyl)carbamoyl]-3,6,9,12,15,18,21-heptaoxatetracosan-24-oic acid] | 1 to 10 | 1 to 10 |  |  | 
Cc1ccc(N2CCC[C@H](N(Cc3ccnc(C)c3)Cc3cn(C4CC4)c4cc(NC(=O)CN)c(F)cc4c3=O)C2)cn1 [Example 25, 2-amino-N-[1-cyclopropyl-6-fluoro-3-({[(3S)-1-(6-methylpyridin-3-yl)piperidin-3-yl][(2-methylpyridin-4-yl)methyl]amino}methyl)-4-oxo-1,4-dihydroquinolin-7-yl]acetamide] |  |  | +++ (+++=ΔTm ≥20° C.) |  | 
Cc1cc(CN(Cc2cn(C)c3ccccc3c2=O)[C@H]2CCCN(c3cncc(CO)c3)C2)ccn1 [Example 44] |  |  |  | > 10 | > 10
Cc1cc(CN(Cc2cn(C3CC3)c3cc(OCCO)c(F)cc3c2=O)[C@H]2CCCN(c3cccnc3)C2)ccn1 [Example 84, 1-cyclopropyl-6-fluoro-7-(2-hydroxyethoxy)-3-({[(2-methylpyridin-4-yl)methyl][(3S)-1-(pyridin-3-yl)piperidin-3-yl]amino}methyl)-1,4-dihydroquinolin-4-one hydrochloride] |  |  |  | < 1 | < 1
Cc1cc(CN(Cc2cn(C(C)C)c3cc(N4CC[C@@H](O)C4)ccc3c2=O)[C@H]2CCCN(c3cncnc3)C2)ccn1 [Example 59, 7-[(3R)-3-Hydroxypyrrolidin-1-yl]-3-({[(2-methylpyridin-4-yl)methyl][(3S)-1-(pyrimidin-5-yl)piperidin-3-yl]amino}methyl)-1-(propan-2-yl)-1,4-dihydroquinolin-4-one] | > 10 | > 10 |  |  | 
Cc1cc(CN(Cc2cn(C(C)C)c3cc(F)c(F)cc3c2=O)[C@H]2CCCN(c3ccc(N)nc3)C2)ccn1.Cl [Example 24, 3-({[(3)-1-(6-aminopyridin-3-yl)piperidin-3-yl][(2-methylpyridin-4-yl)methyl]amino}methyl)-6,7-difluoro-1-(propan-2-yl)-1,4-dihydroquinolin-4-one hydrochloride] |  |  | +++ (+++=ΔTm ≥20° C.) |  | 
Cc1ccc(N2CCC[C@H](N(Cc3ccnc(C)c3)Cc3cn(C4CC4)c4cc(N5CC[C@H](CNC(=O)CCOCCOCCOCCOCCN)C5)c(F)cc4c3=O)C2)cn1 [Example 15A, 1-amino-N-{[(3R)-1-[1-cyclopropyl-6-fluoro-3-({[(3S)-1-(6-methylpyridin-3-yl)piperidin-3-yl][(2-methylpyridin-4-yl)methyl]amino}methyl)-4-oxo-1,4-dihydroquinolin-7-yl]pyrrolidin-3-yl]methyl}-3,6,9,12-tetraoxapentadecan-15-amide] | 1 to 10 | 1 to 10 |  |  | 
Cc1cc(CN(Cc2cn(C(C)C)c3cc(N4CC[C@@H](O)C4)ccc3c2=O)[C@H]2CCCN(c3cn[nH]c3)C2)ccn1 [Example 69, 7-[(3R)-3-hydroxypyrrolidin-1-yl]-3-({[(2-methylpyridin-4-yl)methyl][(3S)-1-(1H-pyrazol-4-yl)piperidin-3-yl]amino}methyl)-1-(propan-2-yl)-1,4-dihydroquinolin-4-one] | 1 to 10 | 1 to 10 |  |  | 
Cc1ccc(N2CCC[C@H](N(Cc3ccnc(C)c3)Cc3cn(C4CC4)c4cc(N5CC[C@@H](NC(=O)OCc6ccc(NC(=O)[C@H](CCCNC(N)=O)NC(=O)[C@@H](NC(=O)CCOCCOCCOCCN=[N+]=[N-])C(C)C)cc6)C5)c(F)cc4c3=O)C2)cn1 [Example 12A, {4-[(2S)-2-[(2S)-2-(3-{2-[2-(2-azidoethoxy)ethoxy]ethoxy}propanamido)-3-methyl-butanamido]-5-(carbamoylamino)pentanamido]phenyl}methyl N-[(3R)-1-[1-cyclopropyl-6-fluoro-3-({[(3S)-1-(6-methylpyridin-3-yl)piperidin-3-yl][(2-methylpyridin-4-yl)methyl]amino}methyl)-4-oxo-1,4-dihydroquinolin-7-yl]pyrrolidin-3-yl]carbamate] | > 10 | 1 to 10 |  |  | 

Further lines, with some results ahead:

EC50 [1, 3] [µM] | EC50 ([2]; 18 h stimulation, luminescence) [µM] | Structure (SMILES) | hSTING FTS binding assay (ΔT C. °) (human STING) | EC50 ([1]; 18 h) [µM] | EC50 ([2]; 18 h) [µM]
< 1 | < 1 | Cc1ccc(N2CCC[C@H](N(Cc3ccnc(C)c3)Cc3cn(C4CC4)c4cc(N5CCOC(CO)C5)c(F)cc4c3=O)C2)cn1 (stereo partly drawn) [Example 71, 1-cyclopropyl-6-fluoro-7-[2-(hydroxymethyl)morpholin-4-yl]-3-({[(3S)-1-(6-methylpyridin-3-yl)piperidin-3-yl][(2-methylpyridin-4-yl)methyl]amino}methyl)-1,4-dihydroquinolin-4-one] |  |  | 
< 1 | < 1 | Cc1cc(CN(Cc2cn(C3CC3)c3cc(N4CCC[C@H](O)C4)c(F)cc3c2=O)[C@H]2CCCN(c3cnccn3)C2)ccn1 [Example 98, 1-cyclopropyl-6-fluoro-7-[(3S)-3-hydroxypiperidin-1-yl]-3-({[(2-methylpyridin-4-yl)methyl][(3S)-1-(pyrazin-2-yl)piperidin-3-yl]amino}methyl)-1,4-dihydroquinolin-4-one hydrochoride] |  |  | 
< 1 | < 1 | Cc1cc(CN(Cc2cn(C3CC3)c3cc(OCCO)c(F)cc3c2=O)[C@H]2CCCN(c3cncc(C(F)(F)F)c3)C2)ccn1 [Example 93, 1-cyclopropyl-6-fluoro-7-(2-hydroxyethoxy)-3-({[(2-methylpyridin-4-yl)methyl][(3S)-1-[5-(trifluoromethyl)pyridin-3-yl]piperidin-3-yl]amino}methyl)-1,4-dihydroquinolin-4-one hydrochloride] |  |  | 
< 1 | < 1 | Cc1cc(CN(Cc2cn(C3CC3)c3cc(OCCO)c(F)cc3c2=O)[C@H]2CCCN(c3cnc(C)c(F)c3)C2)ccn1 [Example 83, 1-cyclopropyl-6-fluoro-3-({[(3S)-1-(5-fluoro-6-methylpyridin-3-yl)piperidin-3-yl][(2-methylpyridin-4-yl)methyl]amino}methyl)-7-(2-hydroxyethoxy)-1,4-dihydroquinolin-4-one] |  |  | 
1 to 10 | 1 to 10 | Cc1ccc(N2CCC[C@H](N(Cc3ccnc(C)c3)Cc3cn(C4CC4)c4cc(OCCN(C)C(=O)CCOCCOCCOCCN)c(F)cc4c3=O)C2)cn1 [Example 11B, 3-{2-[2-(2-aminoethoxy)ethoxy]ethoxy}-N-(2-{[1-cyclopropyl-6-fluoro-3-({[(3S)-1-(6-methylpyridin-3-yl)piperidin-3-yl][(2-methylpyridin-4-yl)methyl]amino}methyl)-4-oxo-1,4-dihydroquinolin-7-yl]oxy}ethyl)-N-methylpropanamide] |  |  | 
< 1 | < 1 | COc1cc(CN(Cc2cn(C3CC3)c3cc(F)c(F)cc3c2=O)[C@H]2CCCN(c3ccc(NC(C)=O)nc3)C2)ccn1 [Example 99, N-{5-[(3S)-3-{[(1-cyclopropyl-6,7-difluoro-4-oxo-1,4-dihydroquinolin-3-yl)methyl][(2-methoxypyridin-4-yl)methyl]amino}piperidin-1-yl]pyridin-2-yl}acetamide] |  |  | 
> 10 | 1 to 10 | Cc1cc(CN(Cc2cn(C3CC3)c3cc(OCCO)c(F)cc3c2=O)[C@H]2CCCN(c3cccnn3)C2)ccn1 [Example 96, 1-cyclopropyl-6-fluoro-7-(2-hydroxyethoxy)-3-({[(2-methylpyridin-4-yl)methyl][(3S)-1-(pyridazin-3-yl)piperidin-3-yl]amino}methyl)-1,4-dihydroquinolin-4-one] |  |  | 
1 to 10 | < 1 | Cc1cc(CN(Cc2cn(C3CC3)c3cc(N4CC[C@@H](O)C4)c(F)cc3c2=O)[C@H]2CCCN(c3noc(C)n3)C2)ccn1 [Example 48, 1-cyclopropyl-6-fluoro-7-[(3R)-3-hydroxypyrrolidin-1-yl]-3-({[(3S)-1-(5-methyl-1,2,4-oxadiazol-3-yl)piperidin-3-yl][(2-methylpyridin-4-yl)methyl]amino}methyl)-1,4-dihydroquinolin-4-one hydrochloride] |  |  | 
< 1 | < 1 | Cc1cc(CN(Cc2cn(C3CC3)c3cc(OCCO)c(F)cc3c2=O)[C@H]2CCCN(c3ccc(N(C)C)nc3)C2)ccn1 [Example 92, 1-cyclopropyl-3-({[(3S)-1-[6-(dimethylamino)pyridin-3-yl]piperidin-3-yl][(2-methylpyridin-4-yl)methyl]amino}methyl)-6-fluoro-7-(2-hydroxyethoxy)-1,4-dihydroquinolin-4-one hydrochloride] |  |  | 
